Laboratory results reported in patent US20190375778A1, “ADENOSINE DERIVATIVES FOR USE IN THE TREATMENT OF CANCER” (NuCana plc, priority 2016, published 2019).
pIC50: −log10 of the molar value.

Assays:
KG-1 = test: CellTiterGlo viability assay, KG-1; format: cell-based; conditions: Homo sapiens, KG-1, 72 h, read-out: IC50 KG-1
Description: (§1) In vitro viability assay were performed to assess the effects of compounds on cell viability in selected cell lines over ˜72 hrs using the CellTiterGlo (CTG, Promega-G7573) assay. The tests were performed in duplicates with treatment of compounds at 9 points, 3.16 folds titration in 96 well plates over ˜72 hrs. The compound starting concentrations were 198 μM. Cell viability assay using CellTiterGlo in 96-well plate were performed. Compound treatment 72 hrs, standard growth conditions, duplicates. Compounds were dissolved to 40 mM with thawed […]. Compounds were serially diluted at 3.16 fold in thawed DMSO, and warmed to 37° C. before being dissolved in media (2 μl+200 μl). After compounds were dissolved in media, media containing compounds were warmed to 37° C. in incubator and then compounds in media were added to cell plates (50 μl+50 μl) in duplicates. The compounds' final concentrations were from […] to 19.9 nM. All compound solubilities were checked and recorded again, then the plates were transferred to CO2 tissue culture incubator immediately and incubated for 3 days. DMSO final concentration is 0.5%.

[1] = tested on: human cervix carcinoma HeLa cells; test: Cell proliferation (Coulter count) assay, HeLa; format: cell-based; conditions: 120 h, cell count on day 5, read-out: absolute IC50, HeLa
Text: (§2) Lovo: cell line derived from a metastatic site in a patient with colon cancer MCF7: human oestrogen sensitive mammary epithelial cell line PC3: human prostate cancer cell line A549: cancerous lung tissue derived cells L1210: lymphoblast cell line derived from a mouse with lymphocytic leukaemia FM3A: mammary carcinoma murine cells CEM: human T-lymphoblasts, derived from the blood of a patient with acute lymphoblastic leukaemia HeLa: epithelial cells from a patient with cervical adenocarcinoma
(§3) Murine leukemia L1210, human T-lymphocyte CEM, and human cervix carcinoma HeLa cells were obtained from the American Type Culture Collection (ATCC) (Rockville, Md.). All cells were maintained in Dulbecco's modified Eagle's medium (DMEM) (Invitrogen, Carlsbad, Calif.) with 10% fetal bovine serum (FBS) (Biochrom AG, Berlin, Germany), 10 mM Hepes, and 1 mM sodiumpyruvate (Invitrogen). Cells were grown at 37° C. in a humidified incubator with a gas phase of 5% CO2. Monolayer cells (HeLa and […]) were seeded in 96-well microtiter plates (Nunc, Roskilde, Denmark) at 10 000 cells/well. After 24 h, an equal volume of fresh medium containing the test compounds was added. On day 5, cells were trypsinized and counted in a Coulter counter (Analis, Suarlee, Belgium). Suspension cells (L1210, CEM) were seeded in 96-well microtiter plates (Nunc) at 60 000 cells/well in the presence of a given amount of the test compounds. The cells were allowed to proliferate for 48 h (L1210) or 72 h (CEM) and were then counted in a Coulter counter. The 50% inhibitory concentration (IC50) was defined as the compound concentration required to reduce cell proliferation by 50%. The cytostatic activity of the compounds was determined after 3 days, as outlined above.

K562 = test: CellTiterGlo viability assay, K562; format: cell-based; conditions: Homo sapiens, K562, 72 h, read-out: IC50 K562
Description: as §1

HL-60 = test: CellTiterGlo viability assay, HL-60; format: cell-based; conditions: Homo sapiens, HL-60, 72 h, read-out: IC50 HL-60
Description: as §1

Murine leukemia L1210 = test: Cell proliferation (Coulter count) assay, L1210; format: cell-based; conditions: Mus musculus, 48 h, read-out: absolute IC50, L1210
Text: as §2, §3

CCRFCEM = test: CellTiterGlo viability assay, CCRFCEM; format: cell-based; conditions: Homo sapiens, CCRF-CEM, 72 h, read-out: IC50 CCRFCEM
Description: as §1

RPMI-8226 = test: CellTiterGlo viability assay, RPMI-8226; format: cell-based, Human; conditions: Homo sapiens, RPMI-8226, 72 h, read-out: IC50 RPMI-8226
Description: as §1

RL = test: CellTiterGlo viability assay, RL; format: cell-based; conditions: Homo sapiens, RL, 72 h, read-out: IC50 RL
Description: as §1

NCI-H929 = test: CellTiterGlo viability assay, NCI-H929; format: cell-based; conditions: Homo sapiens, NCI-H929, 72 h, read-out: IC50 NCI-H929
Description: as §1

MV4-11 = test: CellTiterGlo viability assay, MV4-11; format: cell-based; conditions: Homo sapiens, MV4-11, 72 h, read-out: IC50 MV4-11
Description: as §1

MDAMB231 = test: CellTiterGlo viability assay, MDAMB231; format: cell-based, Human
Description: as §1

HEL92.1.7 = test: CellTiterGlo viability assay, HEL92.1.7; format: cell-based; conditions: Homo sapiens, HEL 92.1.7, 72 h, read-out: IC50 HEL92.1.7
Description: as §1

MCF7 [2] = test: CellTiterGlo viability assay, MCF7; format: cell-based; conditions: Homo sapiens, MCF7, 72 h, read-out: IC50 MCF7
Description: as §1

human T-lymphocyte CEM = test: Cell proliferation (Coulter count) assay, CEM; format: cell-based; conditions: 72 h, read-out: absolute IC50, CEM
Text: as §2, §3

PC3 = test: MTT cytotoxicity assay, PC3; format: cell-based; conditions: Homo sapiens, PC-3, 96 h compound exposure, read-out: absolute IC50, PC3
Text: as §2
(§4) Anti-tumour evaluation in MCF7, LoVo, A549 and PC3 cell lines was performed by MTT assay. Compounds were prepared as 0.1-100 mM stock solutions dissolved in DMSO and stored at −20° C. Cells were seeded into 96-well microtitre plates at a density of 5×10^3 cells per well and allowed 24 hours to adhere. Decimal compound dilutions were prepared in medium immediately prior to each assay (final concentration 0.1-100 μM). Experimental medium was DMEM+10% FCS (PC3 and Lovo) or RPMI+10% heat inactivated FCS (A549 and MCF7). Following 96 h compound exposure at 37° C., 5% CO2, MTT reagent (Sigma Aldrich) was added to each well (final concentration 0.5 mg/ml). Incubation at 37° C. for 4 h allowed reduction of MTT by viable cells to an insoluble formazan product. MTT was removed and formazan solubilised by addition of 10% Triton X-100 in PBS. Absorbance was read on a Tecan Sunrise spectrophotometer at 540 nm as a measure of cell viability; thus inhibition relative to control was determined (IC50).

MCF7 [3] = test: MTT cytotoxicity assay, MCF7; format: cell-based; conditions: Homo sapiens, 96 h compound exposure, read-out: absolute IC50, MCF7
Text: as §2, §4

FM3A = test: Cytotoxicity, FM3A; format: cell-based, murine; conditions: Mus musculus, read-out: absolute IC50, FM3A
Text: as §2

A549 = test: MTT cytotoxicity assay, A549; format: cell-based; conditions: Homo sapiens, 96 h compound exposure, read-out: absolute IC50, A549
Text: as §2, §4

Lovo = test: MTT cytotoxicity assay, Lovo; format: cell-based; conditions: Homo sapiens, 96 h compound exposure, read-out: absolute IC50, Lovo
Text: as §2, §4

Row | SMILES | pIC50 (KG-1) | pIC50 [1] | pIC50 (K562) | pIC50 (HL-60) | pIC50 (Murine leukemia L1210) | pIC50 (CCRFCEM) | pIC50 (RPMI-8226) | pIC50 (RL) | pIC50 (NCI-H929) | pIC50 (MV4-11) | MI% MDAMB231 (MDAMB231; CellTiterGlo, 72 hrs) | pIC50 (MDAMB231; Homo sapiens, MDA-MB-231, 72 h, read-out: IC50 MDAMB231) | pIC50 (HEL92.1.7) | pIC50 (MCF7 [2]) | pIC50 (human T-lymphocyte CEM) | pIC50 (PC3) | pIC50 (MCF7 [3]) | pIC50 (FM3A) | pIC50 (A549) | pIC50 (Lovo)
1 | CC(C)C[C@H](NP(=O)(OC[C@H]1O[C@@H](n2c(Cl)nc3c(N)ncnc32)C(O)C1O)Oc1cccc2ccccc12)C(=O)OCc1ccccc1 (stereo partly drawn) [H, 5′-([(Benzyloxy-L-leucin-N-yl)-naphth-1-yl]-phosphatyl) 8-chloroadenosine] | 4.82 to 5.30 | 5.30 to 7.00 | 5.30 to 7.00 | 4.82 to 5.30 | 4.82 to 5.30 | 4.82 to 5.30 | 5.30 to 7.00 | 4.00 to 4.82 | 5.30 to 7.00 | 5.30 to 7.00 | 99% | 4.82 to 5.30 | 5.30 to 7.00 | 5.30 to 7.00 | 5.30 to 7.00 |  |  |  |  | 
2 | CC(C)[C@H](NP(=O)(OC[C@H]1O[C@@H](n2c(Cl)nc3c(N)ncnc32)C(O)C1O)Oc1ccccc1)C(=O)OCc1ccccc1 (stereo partly drawn) [AA, 5′-([(Benzyloxy-L-valin-N-yl)-phenyl]-phosphatyl) 8-chloroadenosine] |  | 4.82 to 5.30 |  |  | 4.00 to 4.82 |  |  |  |  |  |  |  |  |  | 4.00 to 4.82 | 4.00 to 4.82 | 5.30 to 7.00 | 4.00 to 4.82 | 4.00 to 4.82 | 5.30 to 7.00
3 | COC(=O)[C@H](CCSC)NP(=O)(OC[C@H]1O[C@@H](n2c(Cl)nc3c(N)ncnc32)C(O)C1O)Oc1ccccc1 (stereo partly drawn) [Z, 5′-([(Methyloxy-L-methionine-N-yl)phenyl]-phosphatyl) 8-chloroadenosine] |  | 4.00 to 4.82 |  |  | 4.00 to 4.82 |  |  |  |  |  |  |  |  |  | 4.00 to 4.82 | 4.00 to 4.82 | 4.00 to 4.82 | < 4.00 | < 4.00 | 4.00 to 4.82
4 | CC(C)(C)COC(=O)C(C)(C)NP(=O)(OC[C@H]1O[C@@H](n2c(Cl)nc3c(N)ncnc32)C(O)C1O)Oc1ccccc1 (stereo partly drawn) [Y, 5′-([(Neopentyloxy-2,2-dimethylglycin-N-yl)-phenyl]-phosphatyl) 8-chloroadenosine] |  | 4.00 to 4.82 |  |  | 4.00 to 4.82 |  |  |  |  |  |  |  |  |  | 4.00 to 4.82 | 5.30 to 7.00 | 4.00 to 4.82 | 4.00 to 4.82 | < 4.00 | 5.30 to 7.00
